# Experimental data taken from PMC9844952 (Molecular Imaging and Biology, 2023).
# Several values for one entry are separate records, joined by “and”; a condition that tells them apart may be missing. Equal values may be shown once. Square brackets hold non-standard residues; d marks the D form. Peptide text beside a SMILES is read from it. * marks the point of attachment. NODAGA = O=C(O)CN1CCN(CC(=O)O)CCN(C(CCC(=O)*)C(=O)O)CC1; Tic = O=C(O)[C@@H]1Cc2ccccc2CN1
# T1: OX40 (Homo sapiens, UniProt P43489)
# T1 sequence (P43489 29-277): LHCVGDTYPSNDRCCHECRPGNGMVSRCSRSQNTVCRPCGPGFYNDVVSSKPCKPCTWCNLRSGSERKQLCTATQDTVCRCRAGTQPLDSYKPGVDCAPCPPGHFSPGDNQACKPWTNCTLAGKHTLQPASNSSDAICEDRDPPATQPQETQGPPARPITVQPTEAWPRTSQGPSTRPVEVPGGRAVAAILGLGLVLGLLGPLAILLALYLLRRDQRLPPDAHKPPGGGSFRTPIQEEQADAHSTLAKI
# Tests used:
# [1] = target: IDO1 (Mus musculus, UniProt P28776); assay: small animal PET in B16F10 mouse models; assay type: in vivo
# [2] = test system: K+ channels; assay: first-in-human [18F]3F4AP brain PET; assay type: in vivo
# [3] = test system: UMRC3 cells; assay: [18F]FGln uptake in UMRC3 cells; assay type: cell-based, human
# [4] = test system: ccRCC lung tumors; assay: [18F]FGln PET/MRI of ccRCC lung tumors; design: species or system nude mice; conditions: mouse, in vivo
# [5] = target: CMKLR1 (Mus musculus, UniProt P97468); assay: 64Cu-NODAGA-CG34 PET/CT in bleomycin-induced lung injury; assay type: in vivo
# [6] = as above; assay type: in vivo, mouse; conditions: mouse, lung, PET
# [7] = SWIR ratiometric imaging of ICG clearance; conditions: mean
# [8] = target: EGFR (Homo sapiens, UniProt P00533); assay: 89Zr-panitumumab PET in A431 xenografts with metformin; assay type: in vivo, athymic nude mice; conditions: acute metformin
# [9] = target: HER2 (Homo sapiens, UniProt P04626); assay: 89Zr-trastuzumab PET in NCIN87 xenografts with metformin; assay type: in vivo, athymic nude mice
# [10] = test system: myeloperoxidase (MPO); assay: D-mannose in transient MCAO stroke with heMAMP MRI; assay type: in vivo, C57BL/6J mice
# [11] = target: CSF1R (Mus musculus, UniProt P09581); assay: [18F]1 brain uptake in control and LPS-treated mice; assay type: in vivo
# [12] = target: PSMA (Homo sapiens, UniProt Q04609); assay: automated lesion detection on 68Ga PSMA PET; assay type: in vivo; conditions: 17 PSMA-positive lesions
# [13] = test system: YUMM1.7 melanoma xenografts; assay: BRAF/MEK inhibition in YUMM1.7 melanoma xenografts; assay type: in vivo, mice; conditions: for production of 13C-lactate from 13C-glucose: 24 h after treatment; for tumor growth vs control group: mouse, in vivo
# [14] = test system: HER2 and EGFRvIII; assay: SNIPR-PET T cell imaging in dual xenografts; conditions: in vivo
# [15] = target: deoxycytidine kinase (dCK) (Mus musculus, UniProt P43346); assay: TRE-515 treatment of EAE mouse models of MS; assay type: in vivo
# [16] = test system: aminopeptidase N (APN); assay: kinetic parameters of probes for APN; assay type: biochemical
# [17] = target: Glucocorticoid receptor (GR) (Mus musculus, UniProt P06537); assay: 18F-YJH08 biodistribution in mice; conditions: 30 min post injection, PC3 renal capsule tumors
# [18] = test system: PDGFR-β; assay type: in vivo, mouse; conditions: imatinib for 3 weeks
# [19] = tumor boron content by ICP-MS; assay type: in vivo, mice; conditions: 3h after intraperitoneal injection
# [20] = test system: dopaminergic (DA) neurons; assay: 6-OHDA partial lesion rat model: rotation and DA neuron loss
# [21] = test system: Disialoganglioside GD2; assay: Serial PET/CT of 89Zr-dinutuximab in B78 melanoma mice; assay type: in vivo, mouse
# [22] = target: T1, OX40; assay: [89Zr]huOX40mAb binding to primary human T cells; assay type: cell-based
# [23] = target: T1, OX40; assay: [89Zr]huOX40mAb PET in HEK293 tumor mice; assay type: in vivo, NSG mice; conditions: 72 hours p.i., PET ROI
# [24] = target: T1, OX40; assay: [89Zr]huOX40mAb binding to OX40+ HEK293 cells; assay type: cell-based
# [25] = 12 μg 6-OHDA into right striatum
# Sequence of deoxycytidine kinase (dCK) (P43346 whole entry): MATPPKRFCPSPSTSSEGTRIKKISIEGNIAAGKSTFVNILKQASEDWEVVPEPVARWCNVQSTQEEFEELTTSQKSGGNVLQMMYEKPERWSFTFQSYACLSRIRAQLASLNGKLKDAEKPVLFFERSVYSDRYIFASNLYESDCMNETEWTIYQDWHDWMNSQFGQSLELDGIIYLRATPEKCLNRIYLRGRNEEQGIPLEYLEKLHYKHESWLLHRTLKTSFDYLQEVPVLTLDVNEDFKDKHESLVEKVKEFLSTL
# Sequence of IDO1 (P28776 whole entry): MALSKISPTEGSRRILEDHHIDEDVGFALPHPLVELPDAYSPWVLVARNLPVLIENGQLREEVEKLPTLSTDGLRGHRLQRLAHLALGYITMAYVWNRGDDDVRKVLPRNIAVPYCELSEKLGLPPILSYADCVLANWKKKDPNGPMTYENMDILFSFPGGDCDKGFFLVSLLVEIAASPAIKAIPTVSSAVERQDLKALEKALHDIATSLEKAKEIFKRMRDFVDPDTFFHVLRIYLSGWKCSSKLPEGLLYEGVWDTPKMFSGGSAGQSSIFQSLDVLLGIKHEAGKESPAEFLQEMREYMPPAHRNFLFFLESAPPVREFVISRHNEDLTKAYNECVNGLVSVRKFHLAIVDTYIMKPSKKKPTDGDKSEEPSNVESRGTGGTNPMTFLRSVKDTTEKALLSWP
# Sequence of CSF1R (P09581 20-977): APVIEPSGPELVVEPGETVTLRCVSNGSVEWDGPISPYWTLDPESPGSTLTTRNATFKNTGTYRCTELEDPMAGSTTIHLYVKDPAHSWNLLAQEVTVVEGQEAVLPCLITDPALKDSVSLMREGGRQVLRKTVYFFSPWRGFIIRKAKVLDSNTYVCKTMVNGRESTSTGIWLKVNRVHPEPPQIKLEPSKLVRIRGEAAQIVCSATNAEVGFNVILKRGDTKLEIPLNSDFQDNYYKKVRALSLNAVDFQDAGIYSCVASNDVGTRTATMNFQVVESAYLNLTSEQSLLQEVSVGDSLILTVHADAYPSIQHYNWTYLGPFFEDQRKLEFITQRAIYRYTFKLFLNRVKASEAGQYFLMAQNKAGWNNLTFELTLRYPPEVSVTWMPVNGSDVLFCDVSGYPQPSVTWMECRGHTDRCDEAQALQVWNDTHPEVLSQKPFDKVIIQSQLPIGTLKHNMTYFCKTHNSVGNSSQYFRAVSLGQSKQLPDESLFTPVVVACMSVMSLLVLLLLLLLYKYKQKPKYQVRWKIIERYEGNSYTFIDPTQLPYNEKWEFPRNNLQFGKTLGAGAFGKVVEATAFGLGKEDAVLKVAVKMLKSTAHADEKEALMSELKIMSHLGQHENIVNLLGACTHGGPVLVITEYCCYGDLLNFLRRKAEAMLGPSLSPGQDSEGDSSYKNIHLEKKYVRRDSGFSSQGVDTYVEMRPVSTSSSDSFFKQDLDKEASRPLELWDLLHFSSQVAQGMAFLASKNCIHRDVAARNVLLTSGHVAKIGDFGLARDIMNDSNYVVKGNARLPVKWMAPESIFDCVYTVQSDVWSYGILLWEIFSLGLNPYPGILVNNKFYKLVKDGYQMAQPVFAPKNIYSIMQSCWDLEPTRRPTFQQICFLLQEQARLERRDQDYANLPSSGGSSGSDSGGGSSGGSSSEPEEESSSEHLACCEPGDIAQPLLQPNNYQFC
# Sequence of CMKLR1 (P97468 whole entry): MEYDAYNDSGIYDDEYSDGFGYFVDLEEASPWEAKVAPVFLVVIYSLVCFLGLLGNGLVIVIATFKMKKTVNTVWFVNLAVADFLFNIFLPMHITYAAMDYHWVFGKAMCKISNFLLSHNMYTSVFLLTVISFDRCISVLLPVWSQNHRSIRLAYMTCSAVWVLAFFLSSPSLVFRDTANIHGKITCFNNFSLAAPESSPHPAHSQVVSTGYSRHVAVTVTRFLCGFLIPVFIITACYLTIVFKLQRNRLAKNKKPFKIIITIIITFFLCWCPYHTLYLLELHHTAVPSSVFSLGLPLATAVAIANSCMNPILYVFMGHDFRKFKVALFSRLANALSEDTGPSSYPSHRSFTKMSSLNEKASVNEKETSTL
# Sequence of HER2 (P04626 23-1255): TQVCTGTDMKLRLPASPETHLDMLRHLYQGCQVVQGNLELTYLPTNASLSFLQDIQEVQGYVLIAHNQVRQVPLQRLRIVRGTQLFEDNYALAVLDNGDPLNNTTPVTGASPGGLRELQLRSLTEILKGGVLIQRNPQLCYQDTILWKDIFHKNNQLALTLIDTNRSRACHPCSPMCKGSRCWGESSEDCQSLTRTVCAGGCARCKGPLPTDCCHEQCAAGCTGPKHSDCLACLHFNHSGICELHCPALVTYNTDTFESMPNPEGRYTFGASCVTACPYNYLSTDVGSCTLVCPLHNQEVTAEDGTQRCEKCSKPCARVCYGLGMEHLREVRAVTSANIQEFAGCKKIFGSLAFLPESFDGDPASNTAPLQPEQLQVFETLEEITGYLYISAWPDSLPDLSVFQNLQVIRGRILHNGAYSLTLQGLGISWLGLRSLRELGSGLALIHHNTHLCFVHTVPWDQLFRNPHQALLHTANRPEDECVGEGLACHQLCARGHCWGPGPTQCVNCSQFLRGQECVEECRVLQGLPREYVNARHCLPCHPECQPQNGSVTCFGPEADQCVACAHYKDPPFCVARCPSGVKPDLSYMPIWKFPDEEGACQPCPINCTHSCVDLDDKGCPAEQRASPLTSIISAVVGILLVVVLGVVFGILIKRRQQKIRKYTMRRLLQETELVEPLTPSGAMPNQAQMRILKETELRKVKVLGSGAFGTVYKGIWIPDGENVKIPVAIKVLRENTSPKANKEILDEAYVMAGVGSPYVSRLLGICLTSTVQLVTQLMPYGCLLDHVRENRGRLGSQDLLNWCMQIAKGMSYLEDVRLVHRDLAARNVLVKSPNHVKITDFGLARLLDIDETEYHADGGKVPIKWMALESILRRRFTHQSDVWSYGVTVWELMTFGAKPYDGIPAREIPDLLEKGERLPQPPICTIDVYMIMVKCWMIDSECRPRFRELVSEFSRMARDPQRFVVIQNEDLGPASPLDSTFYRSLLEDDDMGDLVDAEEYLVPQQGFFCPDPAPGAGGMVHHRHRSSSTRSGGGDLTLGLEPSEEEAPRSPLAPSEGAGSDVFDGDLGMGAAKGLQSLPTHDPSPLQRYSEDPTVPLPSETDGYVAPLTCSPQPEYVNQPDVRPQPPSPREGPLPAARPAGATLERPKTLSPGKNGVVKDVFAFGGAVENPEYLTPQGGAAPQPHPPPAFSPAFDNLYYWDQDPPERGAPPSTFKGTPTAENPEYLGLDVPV
# Sequence of PSMA (Q04609 whole entry): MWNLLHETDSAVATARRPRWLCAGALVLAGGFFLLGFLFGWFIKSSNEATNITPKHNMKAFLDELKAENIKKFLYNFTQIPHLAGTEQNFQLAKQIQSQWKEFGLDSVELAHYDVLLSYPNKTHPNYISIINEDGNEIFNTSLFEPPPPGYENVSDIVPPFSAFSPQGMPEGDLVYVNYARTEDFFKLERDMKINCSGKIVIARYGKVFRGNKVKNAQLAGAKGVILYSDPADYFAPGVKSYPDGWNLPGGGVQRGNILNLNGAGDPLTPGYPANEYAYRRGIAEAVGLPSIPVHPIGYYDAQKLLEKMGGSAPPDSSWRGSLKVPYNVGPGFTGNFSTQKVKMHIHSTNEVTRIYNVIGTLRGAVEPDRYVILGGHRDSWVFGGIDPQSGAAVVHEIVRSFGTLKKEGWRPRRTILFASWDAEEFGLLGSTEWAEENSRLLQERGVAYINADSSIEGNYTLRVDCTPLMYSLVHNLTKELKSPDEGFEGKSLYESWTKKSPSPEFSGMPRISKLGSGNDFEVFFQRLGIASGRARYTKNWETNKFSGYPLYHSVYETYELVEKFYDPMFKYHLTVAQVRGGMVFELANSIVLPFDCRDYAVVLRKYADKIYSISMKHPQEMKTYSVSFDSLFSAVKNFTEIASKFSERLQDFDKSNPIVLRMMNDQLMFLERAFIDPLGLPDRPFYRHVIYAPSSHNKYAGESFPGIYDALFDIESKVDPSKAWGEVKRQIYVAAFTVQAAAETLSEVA
# Sequence of Glucocorticoid receptor (GR) (P06537 whole entry): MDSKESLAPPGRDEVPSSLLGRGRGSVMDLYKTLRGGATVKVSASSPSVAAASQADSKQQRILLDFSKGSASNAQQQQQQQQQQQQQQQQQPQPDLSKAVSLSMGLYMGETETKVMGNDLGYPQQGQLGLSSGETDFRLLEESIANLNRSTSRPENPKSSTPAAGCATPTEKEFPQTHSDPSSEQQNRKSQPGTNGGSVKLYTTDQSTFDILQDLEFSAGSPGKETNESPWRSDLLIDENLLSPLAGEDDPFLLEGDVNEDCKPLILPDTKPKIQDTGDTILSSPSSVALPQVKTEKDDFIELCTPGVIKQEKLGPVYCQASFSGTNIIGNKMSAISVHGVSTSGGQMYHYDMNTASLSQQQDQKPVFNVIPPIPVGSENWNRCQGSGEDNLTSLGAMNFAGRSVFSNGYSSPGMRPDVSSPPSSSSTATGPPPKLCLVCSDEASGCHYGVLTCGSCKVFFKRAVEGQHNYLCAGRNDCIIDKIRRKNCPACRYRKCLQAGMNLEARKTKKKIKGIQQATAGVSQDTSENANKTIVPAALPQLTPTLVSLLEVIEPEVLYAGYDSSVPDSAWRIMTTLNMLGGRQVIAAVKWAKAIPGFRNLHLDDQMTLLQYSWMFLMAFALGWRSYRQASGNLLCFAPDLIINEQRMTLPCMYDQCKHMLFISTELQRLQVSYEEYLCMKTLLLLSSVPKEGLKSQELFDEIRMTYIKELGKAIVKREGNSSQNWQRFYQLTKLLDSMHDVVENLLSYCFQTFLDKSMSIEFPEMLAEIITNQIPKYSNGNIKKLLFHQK
molecule,measurement,setting,value
"COc1ccc2[nH]cc(C[C@H](N)C(=O)O)c2c1[18F] [[18F]-L-T13, 4-F-5-OMe-tryptophan]",tumor uptake,[1],9.57±0.26 %ID/g
same,tumor/muscle uptake ratio,[1],4.57±0.2
Nc1ccncc1[18F] [[18F]3F4AP],VT in gray matter,[2]; 1T model,1.52-1.69 mL.cm^-3
same,VT in white matter,[2]; 1T model,1.22-1.29 mL.cm^-3
same,VT in MS lesions,"[2]; 2T model, two lesions of one MS subject",2.24 mL. cm^-3 and 2.26 mL. cm^-3
same,whole-blood to plasma ratio,[2]; after 15 min,0.88 ± 0.01
same,radioactivity corresponding to parent compound,"[2]; plasma, 90 min post injection, Radio-HPLC, average",31%
same,peak SUV in gray matter,"[2]; ~3 min, control subjects",5-7 SUV
same,peak SUV in white matter,"[2]; ~3 min, control subjects",2-4 SUV
O=C(Cc1cccc(OC(F)(F)F)c1)Nc1ccc(CCCCc2nnc(NC(=O)Cc3ccccn3)s2)nn1 [CB-839],effect on [18F]FGln cellular uptake,[3],increased
same,effect on [18F]FGln retention in lung tumors,[4],did not change significantly
"CC(C)C[C@H](NC(=O)[C@H](Cc1ccccc1)NC(=O)[C@@H](Cc1ccc(O)cc1)NC(=O)CCC(C(=O)O)N1CCN(CC(=O)O)CCN(CC(=O)O)CC1)C(=O)N1CCC[C@H]1C(=O)N[C@H](CO)C(=O)N[C@@H](CCC(N)=O)C(=O)N[C@@H](Cc1ccccc1)C(=O)N[C@H](C)C(=O)N1Cc2ccccc2C[C@H]1C(=O)N[C@@H](CO)C(=O)O (some centres unmarked) [64Cu-NODAGA-CG34, metal not drawn] ({NODAGA}-[dY]FLP[dS]QF[dA][Tic]S-OH; N-terminus and C-terminus assumed)",uptake on co-injection of excess NODAGA-CG34,[5]; 100x molar excess non-radiolabeled,near-completely blocked
same,"lung %ID/gmax, 1 week after bleomycin",[5]; PET,4.04±0.87 %ID/g
same,tissue uptake,"[6]; lung %ID/gmax, 2 weeks",3.35 ± 0.47 %ID/g
same,tissue uptake,"[6]; lung %ID/gmax, 4 weeks",1.96 ± 0.19 %ID/g
same,tissue uptake,"[6]; lung %ID/gmax, baseline",1.38 ± 0.1 %ID/g
same,tissue uptake,"[6]; lung %ID/gmean, 1 week after bleomycin",2.47 ± 0.67 %ID/g
same,tissue uptake,"[6]; lung %ID/gmean, 2 weeks",1.83 ± 0.3 %ID/g
same,tissue uptake,"[6]; lung %ID/gmean, 4 weeks",1.03 ± 0.1 %ID/g
same,tissue uptake,"[6]; lung %ID/gmean, baseline",0.7 ± 0.06 %ID/g
"CC1(C)C(/C=C/C=C/C=C/C=C2\N(CCCCS(=O)(=O)O)c3ccc4ccccc4c3C2(C)C)=[N+](CCCCS(=O)(=O)[O-])c2ccc3ccccc3c21 [ICG, indocyanine green]","blood half-life, isoflurane","[7]; sd 0.28, n=4",2.56 min
same,"blood half-life, awake","[7]; sd 0.73, n=4",2.81 min
same,"liver clearance, isoflurane","[7]; sd 2.50, n=3",18.44 min
same,"liver clearance, awake","[7]; sd 3.29, n=9",18.71 min
CN(C)C(=N)N=C(N)N [metformin],"uptake of 89Zr-labeled Panitumumab, control vs metformin-treated tumors",[8],~ 1.8
same,lowering of [89Zr]Zr-DFO-Trastuzumab tumor uptake by daily metformin,[9]; 200 mg/kg ip for 11 consecutive days,3.7 fold
same,"%ID/g of 89Zr-labeled Trastuzumab, control vs acute metformin tumors","[9]; 24 h post-injection, metformin 250 mg/kg oral",~ 1.6
OC[C@H]1OC(O)[C@@H](O)[C@@H](O)[C@@H]1O (stereo partly drawn) [D-mannose],neurological deficit scores vs PBS,[10]; 450mg/kg i.p. daily,improved neurological deficit scores
same,heMAMP MRI enhancement in the infarcted area,"[10]; day 10, p=0.0027",decreased
CC1CCN(c2cc(N3CCN(CC[18F])CC3)ccc2NC(=O)c2cc(C#N)c[nH]2)CC1 [[18F]1],peak brain uptake in control mice,[11]; 5 min post-administration,3.6 %ID/g tissue
same,increase in brain uptake in LPS group,[11]; LPS-treated vs control mice,46%
O=C([O-])CN(CCN(CC(=O)[O-])Cc1cc(CCC(=O)NCCCCCC(=O)NCCCC[C@H](NC(=O)N[C@@H](CCC(=O)O)C(=O)O)C(=O)O)ccc1[O-])Cc1cc(CCC(=O)O)ccc1[O-].[68Ga+3].[OH3+] [68Ga PSMA],diagnostic sensitivity of automated lesion detection,[12],100%
CCCS(=O)(=O)Nc1ccc(F)c(C(=O)c2c[nH]c3ncc(-c4ccc(Cl)cc4)cc23)c1F [vemurafenib],production of 13C-lactate from 13C-glucose,[13],significantly reduced
same,tumor growth vs control group,[13],significantly delayed
"NC(=O)[C@H]([18F])C[C@H](N)C(=O)O [[18F]FGln, (2S,4R)-4-[18F]fluoroglutamine]",cell uptake in UMRC3 vs HEK293 cells,[3],2 fold
same,reduction of tracer cell uptake by excess glutamine,[3]; excess glutamine in the media,60-90%
same,retention in lung tumors vs muscle,[4],2 fold
same,retention in lung tumors vs normal lung tissue,[4],1.5 fold
Nc1nc2c(ncn2CCC(CO)C[18F])c(=O)[nH]1 (centres unmarked) [[18F]FHBG],signal in antigen-expressing tumors vs controls,[14],> 10 fold
COc1ccc(-c2nc([C@@H](C)Sc3nc(N)cc(N)n3)c(C)s2)cc1OCCN1CCOCC1 [TRE-515],clinical symptoms,[15]; MOG35-55 and PLP139-151 EAE models,limited clinical symptoms
same,side effects,[15]; both MS mouse models,no observable side effects
same,plasma levels of deoxycytidine,"[15]; mouse, in vivo",increased
C[C@H](N)C(N)=O [Ala-NH2],Km,[16],15.7 ± 4.4 mM
COc1cccc2c1-c1ccc3c(c1C(Cc1ccc([18F])cc1)O2)C(C)=CC(C)(C)N3 (centres unmarked) [18F-YJH08],tumoral uptake,[17],~ 2 % ID/g
Cc1cccc(COc2ccccc2CN(CC[C@H](N)C(=O)O)Cc2ccccc2OCc2cccc(C)c2)c1 [V-9302],reduction of [18F]FGln cell uptake,[3]; treatment with inhibitor,20-50%
Cc1ccc(NC(=O)c2ccc(CN3CCN(C)CC3)cc2)cc1Nc1nccc(-c2cccnc2)n1 [imatinib],accumulation of Cy7-BiPPB in mutant kidneys under treatment,[18],decreased
CC(=O)NCC1CN(c2ccc(N3CCSCC3)c([18F])c2)C(=O)O1 (centres unmarked) [[18F]sutezolid],brain penetration in TB meningitis,"mouse, in vivo",penetrated the brain parenchyma
same,penetration in lung lesions vs unaffected lung,"pulmonary TB, P< 0.05",significantly lower penetration in the lung lesions
boronophenylalanine-fructose [BPA-Fr],boron content of the tumor,[19],around 42±13 ppm
CC(=O)Nc1cccc(-n2c(=O)n(C3CC3)c(=O)c3c(Nc4ccc(I)cc4F)n(C)c(=O)c(C)c32)c1 [trametinib],production of 13C-lactate from 13C-glucose,[13],significantly reduced
same,tumor growth vs control group,[13],significantly delayed
"NCCc1cc(O)c(O)cc1O [6-OHDA, 6-hydroxydopamine]","APO-induced rotations, 1st week",[20]; [25],6.4 ± 2.4 turns/ min
same,"APO-induced rotations, 3rd week",[20]; [25],11.3±4.3 turns/ min
same,DA neurons loss in treated right striatum,"[20]; [18F]D6-FP-(+)-DTBZ PET, 4th week",approximately 60%
"89Zr-dinutuximab: anti-GD2 mAb dinutuximab radiolabeled via DFO (antibody, chains of the INN, looked up, V domains shown, 89Zr-DFO) VH: EVQLLQSGPELEKPGASVMISCKASGSSFTGYNMNWVRQNIGKSLEWIGAIDPYYGGTSYNQKFKGRATLTVDKSSSTAYMHLKSLTSEDSAVYYCVSGMEYWGQGTSVTVSS VL: EIVMTQSPATLSVSPGERATLSCRSSQSLVHRNGNTYLHWYLQKPGQSPKLLIHKVSNRFSGVPDRFSGSGSGTDFTLKISRVEAEDLGVYFCSQSTHVPPLTFGAGTKLELK",tumor uptake,"[21]; 4 hours, PET",6.5 %ID/g
same,tumor uptake (peak),"[21]; 71 hours, PET",12 %ID/g
same,blood uptake,[21]; 170 hours,< 2 %ID/g
same,liver uptake,[21]; 170 hours,~ 6 %ID/g
same,normal tissues uptake except liver,[21]; 170 hours,< 5 %ID/g
same,normal tissues uptake,[21]; initial,< 11 %ID/g
"[89Zr]huOX40mAb: DFO-conjugated human OX40 mAb Ivuxolimab labeled with 89Zr (conjugate, chains of the INN, looked up, DFO; 89Zr) VH: EVQLVESGGGLVQPGGSLRLSCAASGFTFSSYSMNWVRQAPGKGLEWVSYISSSSSTIDYADSVKGRFTISRDNAKNSLYLQMNSLRDEDTAVYYCARESGWYLFDYWGQGTLVTVSS VL: DIQMTQSPSSLSASVGDRVTITCRASQGISSWLAWYQQKPEKAPKSLIYAASSLQSGVPSRFSGSGSGTDFTLTISSLQPEDFATYYCQQYNSYPPTFGGGTKVEIK",binding to activated (OX40+) vs resting T cells,[22],10.8 fold
same,reduction of binding to activated T cells by blocking,[22]; 25-fold excess cold mAb,88%
same,uptake in HEK293 tumors,[23],2.5 ± 0.7 %ID/g
same,binding to OX40+ HEK293 vs parental HEK293 cells,[24],26.8 fold
same,reduction of binding to OX40+ HEK293 cells by blocking,[24]; 25-fold excess cold mAb,87%
